Earlier results on 1 molecule are cited in article PMC7180638, “Synthesis of Pyrrolidine Monocyclic Analogues of Pochonicine and Its Stereoisomers: Pursuit of Simplified Structures and Potent β-N-Acetylhexosaminidase Inhibition” (Molecules, 2020).

A word on the pIC50: it is the IC50 on a negative log10 scale, so that one unit is a factor of ten.

Series [1] deals with β-N-Acetylhexosaminidase (HL60). As to conditions: ref [2]; cited from earlier work.
In series [2] the target is T1, α-N-Acetylgalactosaminidase (Chicken liver) (Gallus gallus, UniProt Q90744).
T1 construct: purchased Sigma-Aldrich Chemical Co; host or cells: chicken liver
T1 sequence (Q90744 1-405): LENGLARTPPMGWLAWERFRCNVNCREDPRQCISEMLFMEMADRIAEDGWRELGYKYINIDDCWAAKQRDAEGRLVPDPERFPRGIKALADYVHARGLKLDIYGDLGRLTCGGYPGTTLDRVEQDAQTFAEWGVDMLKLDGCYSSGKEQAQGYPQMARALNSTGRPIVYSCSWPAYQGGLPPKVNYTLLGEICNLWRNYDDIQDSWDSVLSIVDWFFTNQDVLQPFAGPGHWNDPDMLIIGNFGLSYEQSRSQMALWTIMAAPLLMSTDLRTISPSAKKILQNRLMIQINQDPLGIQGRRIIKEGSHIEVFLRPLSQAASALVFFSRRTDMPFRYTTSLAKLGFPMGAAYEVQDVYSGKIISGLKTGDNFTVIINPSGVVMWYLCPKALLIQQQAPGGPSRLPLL
Particulars: ref [2], cited from earlier work.

Series [3] deals with β-N Acetylhexosaminidase (A. oryzae). As to conditions: ref [2]; cited from earlier work.
The target of series [4] is β-N Acetylhexosaminidase (Human placenta). Particulars: ref [2]; cited from earlier work.
For series [5], the target named is β-N-Acetylhexosaminidase (Jack bean). As to conditions: ref [2]; cited from earlier work.
For series [6], the target named is β-N-Acetylhexosaminidase (Bovine liver). As to conditions: ref [2]; cited from earlier work.
The target of series [7] is β-N-Acetylgalactosaminidase (HL60). Particulars: ref [2]; cited from earlier work.

pIC50: −log10 of the molar value. Read-outs that look alike come from different tables or passages of the source.

`CC(=O)NC[C@H]1[C@H](O)[C@H](O)[C@@H]2[C@H](O)C[C@@H](CO)N21` [Pochonicine (1), pochonicine]: the pIC50 in series [1] is 7.74; in series [3], 6.48; in series [4] it was 7.92; in series [5] it was 8.80; in series [6], 7.68; in series [7], 7.31. For the same molecule, in series [2] (1000 μM), the “Inhibition % at 1000 μM” value is on record as 9.0%. The IC50 entry in series [2] (listed as pochonicine (1)) is listed as “did not exhibit any inhibition”; in series [2], “NI (No Inhibition (less than 50% at 1000 μM))”.
